Test results from ChEMBL document CHEMBL5303766, “Data for DCP probe FHT-2344” (2022).
Activity calls are given as the source filed them. The calls are words filed in the database; no cut-off is given here.

Tests used:
[1] = biological target: Sodium-dependent serotonin transporter (Homo sapiens) (UniProt P31645); conditions: Compound concentration 10.0 uM
[2] = biological target: Calcium/calmodulin-dependent protein kinase type II subunit beta (Homo sapiens) (UniProt Q13554); experiment: CAMK2B SGC Tm panel (DSF); conditions: for ΔTm: Compound concentration 10.0 uM
[3] = biological target: T1, Serine/threonine-protein kinase PLK4 (Homo sapiens) (UniProt O00444); experiment: PLK4 SGC Tm panel (DSF); conditions: for ΔTm: Compound concentration 10.0 uM
T1 sequence (whole entry): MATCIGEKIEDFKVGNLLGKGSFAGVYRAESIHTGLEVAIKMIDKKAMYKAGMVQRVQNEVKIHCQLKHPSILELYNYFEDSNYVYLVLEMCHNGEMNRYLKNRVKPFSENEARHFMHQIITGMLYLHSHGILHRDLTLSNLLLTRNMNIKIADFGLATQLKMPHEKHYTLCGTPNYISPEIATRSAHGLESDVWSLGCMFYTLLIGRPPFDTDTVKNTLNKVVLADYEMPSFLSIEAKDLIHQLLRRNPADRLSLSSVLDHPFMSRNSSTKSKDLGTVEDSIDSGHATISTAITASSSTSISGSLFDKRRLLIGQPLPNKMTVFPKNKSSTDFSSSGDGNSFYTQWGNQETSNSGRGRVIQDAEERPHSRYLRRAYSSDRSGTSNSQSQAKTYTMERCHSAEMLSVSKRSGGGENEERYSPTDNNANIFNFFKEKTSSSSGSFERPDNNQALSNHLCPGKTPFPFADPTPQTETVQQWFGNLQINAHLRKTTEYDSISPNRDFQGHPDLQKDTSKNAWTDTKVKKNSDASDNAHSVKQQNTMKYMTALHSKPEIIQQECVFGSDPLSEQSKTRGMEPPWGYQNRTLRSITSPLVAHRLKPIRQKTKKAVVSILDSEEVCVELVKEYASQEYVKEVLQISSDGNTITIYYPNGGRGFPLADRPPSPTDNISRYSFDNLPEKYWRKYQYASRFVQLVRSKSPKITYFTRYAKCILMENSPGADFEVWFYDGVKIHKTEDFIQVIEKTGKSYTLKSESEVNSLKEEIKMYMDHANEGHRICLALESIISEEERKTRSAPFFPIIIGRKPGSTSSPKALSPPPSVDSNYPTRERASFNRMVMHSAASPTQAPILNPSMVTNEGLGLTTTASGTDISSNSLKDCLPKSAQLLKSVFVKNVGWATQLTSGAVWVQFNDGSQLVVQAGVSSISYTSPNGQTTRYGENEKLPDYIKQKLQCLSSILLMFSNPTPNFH

[4] = biological target: SWI/SNF-related matrix-associated actin-dependent regulator of chromatin subfamily A member 2 (Homo sapiens, UniProt P51531); experiment: Measurement of the ATPase catalytic activity using the ADP-Glo detection (SMARCA2); assay type: functional
[5] = biological target: T2, Calcium/calmodulin-dependent protein kinase type IV (Homo sapiens) (UniProt Q16566); experiment: CAMK4 SGC Tm panel (DSF); conditions: for ΔTm: Compound concentration 10.0 uM
T2 sequence (whole entry): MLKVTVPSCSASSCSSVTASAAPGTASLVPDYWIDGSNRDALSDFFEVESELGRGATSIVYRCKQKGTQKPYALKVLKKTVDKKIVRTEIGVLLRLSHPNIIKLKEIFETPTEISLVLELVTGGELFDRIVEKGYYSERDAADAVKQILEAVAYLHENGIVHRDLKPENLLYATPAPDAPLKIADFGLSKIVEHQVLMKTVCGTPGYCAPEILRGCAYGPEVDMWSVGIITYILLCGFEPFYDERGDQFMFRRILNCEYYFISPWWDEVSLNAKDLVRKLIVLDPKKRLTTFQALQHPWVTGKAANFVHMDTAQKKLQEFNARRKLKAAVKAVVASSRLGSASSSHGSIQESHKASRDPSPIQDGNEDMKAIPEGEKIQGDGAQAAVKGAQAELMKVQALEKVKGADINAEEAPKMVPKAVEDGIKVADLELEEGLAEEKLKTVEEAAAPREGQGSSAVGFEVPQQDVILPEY

[6] = biological target: Ribosomal protein S6 kinase alpha-1 (Homo sapiens) (UniProt Q15418); experiment: RPS6KA1 SGC Tm panel (DSF); conditions: for ΔTm: Compound concentration 10.0 uM
[7] = biological target: Muscarinic acetylcholine receptor M5 (Homo sapiens) (UniProt P08912); conditions: Compound concentration 10.0 uM
[8] = biological target: Serine/threonine-protein kinase PAK 1 (Homo sapiens) (UniProt Q13153); experiment: PAK1 SGC Tm panel (DSF); conditions: for ΔTm: Compound concentration 10.0 uM
[9] = biological target: Mitogen-activated protein kinase 14 (Homo sapiens) (UniProt Q16539); experiment: MAPK14 SGC Tm panel (DSF); conditions: for ΔTm: Compound concentration 10.0 uM
[10] = biological target: Fibroblast growth factor receptor 2 (Homo sapiens) (UniProt P21802); experiment: FGFR2 SGC Tm panel (DSF); conditions: for ΔTm: Compound concentration 10.0 uM
[11] = biological target: Dual specificity protein kinase CLK3 (Homo sapiens) (UniProt P49761); experiment: CLK3 SGC Tm panel (DSF); conditions: for ΔTm: Compound concentration 10.0 uM
[12] = biological target: T3, Serine/threonine-protein kinase DCLK1 (Homo sapiens) (UniProt O15075); experiment: DCAMKL1 SGC Tm panel (DSF); conditions: for ΔTm: Compound concentration 10.0 uM
T3 sequence (whole entry): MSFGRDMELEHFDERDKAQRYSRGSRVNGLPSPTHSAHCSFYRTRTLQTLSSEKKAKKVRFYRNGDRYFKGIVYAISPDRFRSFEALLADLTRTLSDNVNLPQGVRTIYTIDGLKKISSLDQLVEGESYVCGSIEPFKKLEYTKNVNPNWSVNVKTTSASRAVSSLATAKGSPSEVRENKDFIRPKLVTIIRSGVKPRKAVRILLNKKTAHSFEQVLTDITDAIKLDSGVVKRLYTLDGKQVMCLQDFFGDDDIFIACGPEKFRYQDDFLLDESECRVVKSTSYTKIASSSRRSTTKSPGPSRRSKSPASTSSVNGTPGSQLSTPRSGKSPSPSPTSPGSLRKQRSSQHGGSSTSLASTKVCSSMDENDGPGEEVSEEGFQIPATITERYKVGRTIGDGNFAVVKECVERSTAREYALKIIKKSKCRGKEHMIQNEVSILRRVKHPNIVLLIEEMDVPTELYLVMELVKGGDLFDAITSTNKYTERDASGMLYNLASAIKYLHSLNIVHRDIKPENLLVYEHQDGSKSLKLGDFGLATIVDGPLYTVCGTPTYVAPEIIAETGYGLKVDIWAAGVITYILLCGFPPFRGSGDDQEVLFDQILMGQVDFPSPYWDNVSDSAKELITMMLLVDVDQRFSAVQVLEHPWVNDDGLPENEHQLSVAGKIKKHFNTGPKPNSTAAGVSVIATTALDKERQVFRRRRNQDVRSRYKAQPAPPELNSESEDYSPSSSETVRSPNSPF

[13] = biological target: Homeodomain-interacting protein kinase 2 (Homo sapiens) (UniProt Q9H2X6); experiment: HIPK2 SGC Tm panel (DSF); conditions: for ΔTm: Compound concentration 10.0 uM
Homeodomain-interacting protein kinase 2 (Homo sapiens), sequence (Q9H2X6 whole entry, looked up): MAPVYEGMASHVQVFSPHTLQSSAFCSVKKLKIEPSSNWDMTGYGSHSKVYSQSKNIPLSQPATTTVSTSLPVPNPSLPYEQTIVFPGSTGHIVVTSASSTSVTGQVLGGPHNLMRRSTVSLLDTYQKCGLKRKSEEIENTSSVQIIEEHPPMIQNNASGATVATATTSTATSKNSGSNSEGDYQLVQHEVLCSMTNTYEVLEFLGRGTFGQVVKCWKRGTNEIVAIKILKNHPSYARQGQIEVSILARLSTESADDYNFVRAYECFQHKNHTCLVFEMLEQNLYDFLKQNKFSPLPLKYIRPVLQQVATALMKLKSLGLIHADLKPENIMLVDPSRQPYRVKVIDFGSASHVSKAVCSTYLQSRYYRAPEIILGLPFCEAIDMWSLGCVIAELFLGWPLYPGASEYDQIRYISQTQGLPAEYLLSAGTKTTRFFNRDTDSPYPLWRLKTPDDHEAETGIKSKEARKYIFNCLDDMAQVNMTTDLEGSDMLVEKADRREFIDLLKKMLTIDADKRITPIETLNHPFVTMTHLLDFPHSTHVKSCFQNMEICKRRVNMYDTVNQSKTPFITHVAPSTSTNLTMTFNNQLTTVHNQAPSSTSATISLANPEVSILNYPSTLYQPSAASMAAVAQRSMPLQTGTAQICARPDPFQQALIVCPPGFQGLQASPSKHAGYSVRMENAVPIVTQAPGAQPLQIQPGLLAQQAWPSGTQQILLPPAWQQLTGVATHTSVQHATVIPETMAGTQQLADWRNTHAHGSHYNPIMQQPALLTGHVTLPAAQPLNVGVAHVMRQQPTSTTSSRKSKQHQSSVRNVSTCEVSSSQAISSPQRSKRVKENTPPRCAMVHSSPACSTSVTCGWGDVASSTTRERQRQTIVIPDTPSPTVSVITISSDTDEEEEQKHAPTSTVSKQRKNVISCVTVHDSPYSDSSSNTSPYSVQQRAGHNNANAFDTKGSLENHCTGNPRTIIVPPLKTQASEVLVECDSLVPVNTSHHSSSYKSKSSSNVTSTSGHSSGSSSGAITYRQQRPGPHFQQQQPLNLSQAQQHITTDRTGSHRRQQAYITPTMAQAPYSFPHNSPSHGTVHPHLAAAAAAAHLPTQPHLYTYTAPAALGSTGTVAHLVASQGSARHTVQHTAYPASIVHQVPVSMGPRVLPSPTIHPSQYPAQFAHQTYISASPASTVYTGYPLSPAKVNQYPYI

Dual specificity protein kinase CLK3 (Homo sapiens), sequence (P49761 whole entry, looked up): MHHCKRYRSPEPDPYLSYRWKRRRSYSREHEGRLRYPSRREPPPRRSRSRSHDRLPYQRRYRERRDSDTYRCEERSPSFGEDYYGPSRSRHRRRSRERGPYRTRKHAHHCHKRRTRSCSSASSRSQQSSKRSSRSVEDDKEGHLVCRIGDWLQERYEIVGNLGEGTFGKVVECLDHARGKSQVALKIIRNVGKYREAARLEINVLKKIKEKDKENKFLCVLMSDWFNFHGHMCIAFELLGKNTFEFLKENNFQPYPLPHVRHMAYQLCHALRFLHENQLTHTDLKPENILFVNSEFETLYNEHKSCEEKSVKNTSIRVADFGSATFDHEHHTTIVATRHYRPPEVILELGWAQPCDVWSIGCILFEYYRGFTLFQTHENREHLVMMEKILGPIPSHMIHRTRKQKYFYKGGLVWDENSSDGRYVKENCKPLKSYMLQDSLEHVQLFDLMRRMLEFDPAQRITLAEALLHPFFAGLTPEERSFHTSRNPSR
Fibroblast growth factor receptor 2 (Homo sapiens), sequence (P21802 22-821 limits assumed): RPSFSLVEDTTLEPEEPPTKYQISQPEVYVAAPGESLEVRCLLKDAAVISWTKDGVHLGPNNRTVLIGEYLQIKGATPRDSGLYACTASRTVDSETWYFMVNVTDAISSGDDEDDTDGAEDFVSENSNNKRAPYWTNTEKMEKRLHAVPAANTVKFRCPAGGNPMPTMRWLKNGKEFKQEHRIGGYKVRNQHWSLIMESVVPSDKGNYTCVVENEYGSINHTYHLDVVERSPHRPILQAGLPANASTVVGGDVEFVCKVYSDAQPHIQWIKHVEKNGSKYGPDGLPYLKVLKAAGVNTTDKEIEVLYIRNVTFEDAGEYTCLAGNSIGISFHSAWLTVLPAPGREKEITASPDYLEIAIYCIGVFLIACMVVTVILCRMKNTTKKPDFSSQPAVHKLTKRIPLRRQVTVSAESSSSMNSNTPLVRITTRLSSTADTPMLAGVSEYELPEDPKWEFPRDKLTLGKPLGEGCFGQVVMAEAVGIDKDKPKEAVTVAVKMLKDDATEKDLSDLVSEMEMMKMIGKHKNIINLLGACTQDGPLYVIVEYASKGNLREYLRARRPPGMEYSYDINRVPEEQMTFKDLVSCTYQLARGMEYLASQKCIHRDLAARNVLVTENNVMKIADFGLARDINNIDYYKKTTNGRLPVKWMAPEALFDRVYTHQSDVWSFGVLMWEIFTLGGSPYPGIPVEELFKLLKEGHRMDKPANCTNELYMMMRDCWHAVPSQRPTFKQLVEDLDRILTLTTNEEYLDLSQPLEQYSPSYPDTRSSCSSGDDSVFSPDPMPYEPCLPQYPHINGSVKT
Mitogen-activated protein kinase 14 (Homo sapiens), sequence (Q16539 whole entry): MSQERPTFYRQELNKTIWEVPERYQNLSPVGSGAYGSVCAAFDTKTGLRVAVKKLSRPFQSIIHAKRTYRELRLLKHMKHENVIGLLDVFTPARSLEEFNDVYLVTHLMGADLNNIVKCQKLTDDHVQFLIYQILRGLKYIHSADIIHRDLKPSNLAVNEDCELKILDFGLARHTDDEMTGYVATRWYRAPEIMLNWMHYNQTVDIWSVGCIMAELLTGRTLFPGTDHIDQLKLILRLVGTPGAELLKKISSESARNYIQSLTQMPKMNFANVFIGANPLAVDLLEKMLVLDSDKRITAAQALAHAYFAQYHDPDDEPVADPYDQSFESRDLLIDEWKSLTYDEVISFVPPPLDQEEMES
Serine/threonine-protein kinase PAK 1 (Homo sapiens), sequence (Q13153 whole entry): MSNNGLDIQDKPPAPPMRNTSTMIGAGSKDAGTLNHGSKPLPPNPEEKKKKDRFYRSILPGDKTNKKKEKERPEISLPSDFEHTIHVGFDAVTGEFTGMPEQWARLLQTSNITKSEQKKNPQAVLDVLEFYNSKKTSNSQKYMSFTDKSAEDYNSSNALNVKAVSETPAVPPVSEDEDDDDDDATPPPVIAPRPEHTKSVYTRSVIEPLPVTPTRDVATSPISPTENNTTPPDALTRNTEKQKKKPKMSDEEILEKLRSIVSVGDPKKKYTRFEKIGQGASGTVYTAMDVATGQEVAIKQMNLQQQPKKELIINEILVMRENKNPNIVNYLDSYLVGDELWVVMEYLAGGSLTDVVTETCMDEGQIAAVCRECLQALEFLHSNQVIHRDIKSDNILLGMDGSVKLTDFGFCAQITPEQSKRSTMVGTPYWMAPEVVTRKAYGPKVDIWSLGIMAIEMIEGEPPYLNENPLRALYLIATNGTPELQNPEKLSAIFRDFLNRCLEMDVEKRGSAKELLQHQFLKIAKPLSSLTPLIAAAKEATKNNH
Ribosomal protein S6 kinase alpha-1 (Homo sapiens), sequence (Q15418 whole entry): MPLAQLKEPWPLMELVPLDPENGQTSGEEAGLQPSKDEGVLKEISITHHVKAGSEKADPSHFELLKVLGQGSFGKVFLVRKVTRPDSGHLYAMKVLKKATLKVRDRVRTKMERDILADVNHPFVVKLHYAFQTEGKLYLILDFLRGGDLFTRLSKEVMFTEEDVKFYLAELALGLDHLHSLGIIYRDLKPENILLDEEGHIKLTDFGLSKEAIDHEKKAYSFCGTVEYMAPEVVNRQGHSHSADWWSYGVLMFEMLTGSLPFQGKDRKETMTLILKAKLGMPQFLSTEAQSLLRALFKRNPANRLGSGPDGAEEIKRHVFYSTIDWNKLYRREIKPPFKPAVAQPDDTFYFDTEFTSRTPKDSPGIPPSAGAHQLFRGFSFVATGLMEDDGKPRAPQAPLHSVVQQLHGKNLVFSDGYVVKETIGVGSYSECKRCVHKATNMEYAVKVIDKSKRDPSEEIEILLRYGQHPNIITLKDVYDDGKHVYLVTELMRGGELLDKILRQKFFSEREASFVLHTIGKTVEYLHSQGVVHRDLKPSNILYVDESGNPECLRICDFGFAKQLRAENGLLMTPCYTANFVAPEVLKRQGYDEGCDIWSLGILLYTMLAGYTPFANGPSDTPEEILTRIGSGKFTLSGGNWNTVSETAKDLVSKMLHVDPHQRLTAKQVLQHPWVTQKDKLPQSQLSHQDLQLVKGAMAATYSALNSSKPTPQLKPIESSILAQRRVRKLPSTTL
Calcium/calmodulin-dependent protein kinase type II subunit beta (Homo sapiens), sequence (Q13554 whole entry): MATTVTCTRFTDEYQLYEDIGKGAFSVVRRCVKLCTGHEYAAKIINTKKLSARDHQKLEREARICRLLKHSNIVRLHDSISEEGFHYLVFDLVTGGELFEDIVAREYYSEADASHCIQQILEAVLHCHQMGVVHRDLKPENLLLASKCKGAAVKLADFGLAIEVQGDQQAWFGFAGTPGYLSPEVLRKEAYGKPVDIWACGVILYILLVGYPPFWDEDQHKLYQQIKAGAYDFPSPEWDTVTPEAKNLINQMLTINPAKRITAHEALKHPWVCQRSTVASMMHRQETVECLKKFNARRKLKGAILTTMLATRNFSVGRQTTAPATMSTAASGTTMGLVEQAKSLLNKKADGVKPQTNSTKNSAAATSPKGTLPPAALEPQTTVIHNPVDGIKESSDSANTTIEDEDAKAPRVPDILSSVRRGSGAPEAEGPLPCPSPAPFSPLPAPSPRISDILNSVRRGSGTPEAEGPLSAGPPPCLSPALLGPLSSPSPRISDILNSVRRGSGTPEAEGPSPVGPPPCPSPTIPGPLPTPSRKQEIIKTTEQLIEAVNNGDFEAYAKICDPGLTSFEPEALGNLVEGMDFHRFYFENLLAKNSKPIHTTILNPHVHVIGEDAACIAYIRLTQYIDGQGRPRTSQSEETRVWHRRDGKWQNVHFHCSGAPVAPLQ

**Q.** What does the source list for `C[C@H](NC(=O)c1cn(C2(C#N)CC2)cn1)C(=O)Nc1nc(-c2cccc(-c3ccn(C)n3)c2)cs1`?
**A.** inhibition [1]: 17.3%; delta Tm Staurosporine positive control [2]: 14.5; ΔTm [2]: 0.509; delta Tm Staurosporine positive control [3]: 19.9; ΔTm [3]: 0.729; IC50 [4]: 1.88 µM (not active); delta Tm Staurosporine positive control [5]: 8.78; ΔTm [5]: 0.413; delta Tm Staurosporine positive control [6]: 3.76; ΔTm [6]: 0.223; inhibition [7]: 4.67%; delta Tm Staurosporine positive control [8]: 7.66; ΔTm [8]: 0.443; delta Tm Staurosporine positive control [9]: 1.14; ΔTm [9]: -0.0712; delta Tm Staurosporine positive control [10]: 8.53; ΔTm [10]: 0.191; delta Tm Staurosporine positive control [11]: 4.89; ΔTm [11]: -0.347; delta Tm Staurosporine positive control [12]: 14; ΔTm [12]: -0.00623; delta Tm Staurosporine positive control [13]: 6.38; ΔTm [13]: 0.207

**Q.** `COC[C@H](NC(=O)c1ccn(S(C)(=O)=O)c1)C(=O)Nc1nc(-c2cccc(-c3ccn(C)n3)c2)cs1` was tested. Which inhibition [1] did it give?
**A.** Its inhibition is 27.5%.

**Q.** What about the delta Tm Staurosporine positive control [2] of the same molecule?
**A.** Its delta Tm Staurosporine positive control is 14.5.

**Q.** What about the ΔTm [2] of the same molecule?
**A.** The ΔTm was 0.588.

**Q.** What about the delta Tm Staurosporine positive control [3] of the same molecule?
**A.** Its delta Tm Staurosporine positive control is 19.9.

**Q.** What about the ΔTm [3] of the same molecule?
**A.** The ΔTm was 0.546.

**Q.** And the IC50 [4]?
**A.** The IC50 was 0.0138 µM (active).

**Q.** What about the delta Tm Staurosporine positive control [5] of the same molecule?
**A.** Its delta Tm Staurosporine positive control is 8.78.

**Q.** What about the ΔTm [5] of the same molecule?
**A.** Its ΔTm is 0.803.

**Q.** What about the delta Tm Staurosporine positive control [6] of the same molecule?
**A.** Its delta Tm Staurosporine positive control is 3.76.

**Q.** And the ΔTm [6]?
**A.** The ΔTm was 0.166.

**Q.** What about the inhibition [7] of the same molecule?
**A.** Its inhibition is 0.52%.

**Q.** What about the delta Tm Staurosporine positive control [8] of the same molecule?
**A.** The delta Tm Staurosporine positive control was 7.66.

**Q.** What about the ΔTm [8] of the same molecule?
**A.** Its ΔTm is -0.233.

**Q.** What about the delta Tm Staurosporine positive control [9] of the same molecule?
**A.** Its delta Tm Staurosporine positive control is 1.14.

**Q.** What about the ΔTm [9] of the same molecule?
**A.** Its ΔTm is -0.0969.

**Q.** What about the delta Tm Staurosporine positive control [10] of the same molecule?
**A.** The delta Tm Staurosporine positive control was 8.53.

**Q.** What about the ΔTm [10] of the same molecule?
**A.** The ΔTm was 0.294.

**Q.** What about the delta Tm Staurosporine positive control [11] of the same molecule?
**A.** The delta Tm Staurosporine positive control was 4.89.

**Q.** And the ΔTm [11]?
**A.** The ΔTm was -0.362.

**Q.** What about the delta Tm Staurosporine positive control [12] of the same molecule?
**A.** The delta Tm Staurosporine positive control was 14.

**Q.** And the ΔTm [12]?
**A.** The ΔTm was 0.237.

**Q.** What about the delta Tm Staurosporine positive control [13] of the same molecule?
**A.** The delta Tm Staurosporine positive control was 6.38.

**Q.** And the ΔTm [13]?
**A.** The ΔTm was 0.234.
